# Laboratory results as given in ChEMBL document CHEMBL1130264 (J Med Chem, 1997).
# Columns and labels:
# Acetylcholine receptor [1] = target: T1, Acetylcholine receptor (Torpedo californica, UniProt P02710+P02712+P02714+P02718)
# Rattus norvegicus [2] = species: Rattus norvegicus; test: Compound was evaluated for functional potencies and efficacies at rat nAChR subtype DA release; format: organism-based
# Acetylcholine receptor [3] = target: T1, Acetylcholine receptor; remark: listed apart in the source
# [4] = target: T2, Neuronal acetylcholine receptor subunit alpha-7 (Homo sapiens, UniProt P36544); test: Compound was evaluated for functional potencies and efficacies at human Nicotinic acetylcholine receptor alpha7
# [5] = target: T3, Neuronal acetylcholine receptor; alpha4/beta2 (Homo sapiens, UniProt P17787+P43681); test: Compound was evaluated for functional potencies and efficacies at human Nicotinic acetylcholine receptor alpha4-beta2; format: protein-complex assay
# [6] = target: T4, Neuronal acetylcholine receptor; alpha4/beta2 (Rattus norvegicus, UniProt P09483+P12390); test: Compound was evaluated for functional potencies and efficacies at rat Recombinant Nicotinic acetylcholine receptor alpha4-beta2; low efficacy; format: protein-complex assay
# [7] = target: T2, Neuronal acetylcholine receptor subunit alpha-7; test: Compound was evaluated for functional potencies and efficacies at human Nicotinic acetylcholine receptor alpha7; low efficacy
# [8] = target: T3, Neuronal acetylcholine receptor; alpha4/beta2; test: Compound was evaluated for functional potencies and efficacies at human Nicotinic acetylcholine receptor alpha4-beta2; low efficacy; format: protein-complex assay
# [9] = target: Neuronal acetylcholine receptor; alpha3/beta4 (Homo sapiens, UniProt P30926+P32297); test: Compound was evaluated for functional potencies and efficacies at human Nicotinic acetylcholine receptor subtype IMR-32 (ganglionic); format: protein-complex assay
# [10] = target: T5, Neuronal acetylcholine receptor subunit alpha-7 (Rattus norvegicus, UniProt Q05941); test: Binding potency for Nicotinic acetylcholine receptor alpha-7 (rat brain)
# [11] = target: T5, Neuronal acetylcholine receptor subunit alpha-7; test: Functional potency for Nicotinic acetylcholine receptor alpha-7 (rat brain)
# [12] = target: T4, Neuronal acetylcholine receptor; alpha4/beta2; test: Binding potency for Nicotinic acetylcholine receptor alpha4-beta2 (rat brain)
# [13] = target: T4, Neuronal acetylcholine receptor; alpha4/beta2; test: Functional potency for Nicotinic acetylcholine receptor alpha4-beta2 (rat brain)
# [14] = target: T4, Neuronal acetylcholine receptor; alpha4/beta2; test: Compound was evaluated for functional potencies and efficacies at rat Nicotinic acetylcholine receptor alpha4-beta2; format: protein-complex assay
# [15] = target: T5, Neuronal acetylcholine receptor subunit alpha-7; test: (§1) Affinity for Nicotinic acetylcholine receptor alpha7
# [16] = target: T6, Neuronal acetylcholine receptor (Rattus norvegicus) (UniProt P04757+P09483+P12389+P12390+P12392+P43144+Q9JLB5+P12391+P43143+P20420+Q05941); test: Compound was evaluated for functional potency and efficacy at rat Nicotinic acetylcholine receptor subtype DA release at 1 uM
# [17] = target: T6, Neuronal acetylcholine receptor (Rattus norvegicus); test: compound was evaluated for functional potency and efficacy at rat Nicotinic acetylcholine receptor subtype DA release at 10 uM
# [18] = target: Neuronal acetylcholine receptor; test: Compound was evaluated for functional potencies and efficacies at rat Nicotinic acetylcholine receptor subtype PC12 (ganglionic); format: cell-based; settings: pc-12
# Acetylcholine receptor [19] = target: T1, Acetylcholine receptor; test: Binding potency for nAChR subtype Alpha-1-beta-1-delta gamma(torpedo); format: protein-complex assay
# Acetylcholine receptor [20] = target: T1, Acetylcholine receptor; test: Functional potency for nAChR subtype Alpha1-beta1 delta gamma (torpedo); format: protein-complex assay
# [21] = target: T2, Neuronal acetylcholine receptor subunit alpha-7; test: as §1
# TE-671 = test: Stimulation of ion flux in TE671 cells; format: functional, cell-based; settings: Homo sapiens
# [22] = target: T2, Neuronal acetylcholine receptor subunit alpha-7; test: Ability to block activation of acetylcholine-stimulated currents in human alpha-7 homomers expressed in oocytes; format: functional, cell-based, Oocyte
# [23] = target: Muscle-type nicotinic acetylcholine receptor; test: Compound was evaluated for functional potencies and efficacies at human muscle type Nicotinic acetylcholine receptor in TE671 cells; format: cell-based; settings: te-671
# Rattus norvegicus [24] = species: Rattus norvegicus; test: compound was evaluated for functional potencies and efficacies at rat nAChR subtype DA release; format: organism-based
# [25] = target: Neuronal acetylcholine receptor; test: Compound was evaluated for functional potency and efficacy at rat Nicotinic acetylcholine receptor in PC12 cells (ganglionic); format: cell-based; settings: pc-12
# T5 sequence (Q05941 whole entry): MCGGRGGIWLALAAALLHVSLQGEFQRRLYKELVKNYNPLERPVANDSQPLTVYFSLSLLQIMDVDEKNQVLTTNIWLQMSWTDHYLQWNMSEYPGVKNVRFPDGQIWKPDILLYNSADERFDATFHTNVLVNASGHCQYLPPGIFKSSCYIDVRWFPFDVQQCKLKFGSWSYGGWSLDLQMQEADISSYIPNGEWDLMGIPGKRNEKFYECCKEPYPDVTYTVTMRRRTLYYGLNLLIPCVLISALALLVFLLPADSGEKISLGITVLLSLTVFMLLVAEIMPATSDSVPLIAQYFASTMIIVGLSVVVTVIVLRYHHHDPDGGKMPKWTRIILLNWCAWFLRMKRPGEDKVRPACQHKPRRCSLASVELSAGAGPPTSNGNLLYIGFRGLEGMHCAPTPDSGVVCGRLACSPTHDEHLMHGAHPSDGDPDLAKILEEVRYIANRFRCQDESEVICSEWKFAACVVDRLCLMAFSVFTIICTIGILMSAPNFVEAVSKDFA
# T1 sequence (P02710 whole entry): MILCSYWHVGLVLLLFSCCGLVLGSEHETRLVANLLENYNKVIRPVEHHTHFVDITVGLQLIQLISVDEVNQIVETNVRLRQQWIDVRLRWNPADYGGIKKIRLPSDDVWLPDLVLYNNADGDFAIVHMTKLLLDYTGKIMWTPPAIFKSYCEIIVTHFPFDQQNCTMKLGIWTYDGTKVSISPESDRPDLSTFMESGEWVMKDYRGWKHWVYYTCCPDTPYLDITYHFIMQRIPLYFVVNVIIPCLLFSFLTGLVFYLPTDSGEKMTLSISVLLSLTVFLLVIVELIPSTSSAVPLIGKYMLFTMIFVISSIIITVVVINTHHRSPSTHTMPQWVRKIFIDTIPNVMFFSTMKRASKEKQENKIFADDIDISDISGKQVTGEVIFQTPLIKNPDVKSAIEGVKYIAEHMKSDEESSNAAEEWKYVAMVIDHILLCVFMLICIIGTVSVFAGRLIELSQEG
# T1 sequence (P02712 whole entry): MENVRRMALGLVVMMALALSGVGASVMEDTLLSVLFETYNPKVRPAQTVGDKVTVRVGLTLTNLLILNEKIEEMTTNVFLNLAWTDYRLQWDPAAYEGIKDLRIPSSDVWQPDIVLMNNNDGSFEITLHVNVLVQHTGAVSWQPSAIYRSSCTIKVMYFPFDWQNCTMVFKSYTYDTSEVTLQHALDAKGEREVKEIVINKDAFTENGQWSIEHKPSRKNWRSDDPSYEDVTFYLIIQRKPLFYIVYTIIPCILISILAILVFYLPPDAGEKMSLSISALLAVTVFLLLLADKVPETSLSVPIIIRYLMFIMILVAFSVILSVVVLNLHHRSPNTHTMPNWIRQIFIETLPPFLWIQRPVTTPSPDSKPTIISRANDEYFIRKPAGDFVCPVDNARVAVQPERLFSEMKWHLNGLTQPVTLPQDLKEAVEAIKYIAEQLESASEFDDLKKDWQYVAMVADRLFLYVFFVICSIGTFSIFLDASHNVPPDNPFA
# T1 sequence (P02718 whole entry): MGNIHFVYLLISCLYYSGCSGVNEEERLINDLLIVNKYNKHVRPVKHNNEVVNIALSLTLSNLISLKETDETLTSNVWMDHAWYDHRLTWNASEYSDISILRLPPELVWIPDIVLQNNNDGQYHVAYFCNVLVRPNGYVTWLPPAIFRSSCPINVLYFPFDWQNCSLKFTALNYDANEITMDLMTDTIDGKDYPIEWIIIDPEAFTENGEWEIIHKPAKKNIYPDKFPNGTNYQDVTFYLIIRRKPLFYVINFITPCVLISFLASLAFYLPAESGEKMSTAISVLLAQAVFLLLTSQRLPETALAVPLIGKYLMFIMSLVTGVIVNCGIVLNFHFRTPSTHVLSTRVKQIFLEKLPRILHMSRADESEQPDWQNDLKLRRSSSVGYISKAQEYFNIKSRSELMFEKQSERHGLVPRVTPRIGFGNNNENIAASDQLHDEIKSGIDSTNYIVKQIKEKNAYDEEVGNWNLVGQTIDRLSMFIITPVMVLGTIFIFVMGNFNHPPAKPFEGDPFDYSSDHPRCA
# T1 sequence (P02714 whole entry): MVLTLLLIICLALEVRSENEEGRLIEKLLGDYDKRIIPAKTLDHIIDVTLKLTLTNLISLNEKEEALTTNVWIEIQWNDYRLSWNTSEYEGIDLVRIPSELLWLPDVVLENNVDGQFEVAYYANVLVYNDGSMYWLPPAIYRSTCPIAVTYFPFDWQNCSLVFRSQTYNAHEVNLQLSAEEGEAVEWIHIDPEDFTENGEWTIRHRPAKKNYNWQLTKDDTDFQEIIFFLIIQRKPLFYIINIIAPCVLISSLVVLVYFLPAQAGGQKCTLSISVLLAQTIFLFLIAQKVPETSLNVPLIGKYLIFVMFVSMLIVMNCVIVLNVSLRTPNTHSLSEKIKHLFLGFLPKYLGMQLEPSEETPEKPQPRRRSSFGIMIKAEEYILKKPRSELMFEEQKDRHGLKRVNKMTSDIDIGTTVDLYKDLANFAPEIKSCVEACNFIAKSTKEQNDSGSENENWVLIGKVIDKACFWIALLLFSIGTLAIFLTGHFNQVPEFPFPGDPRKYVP
# T3 sequence (P17787 whole entry): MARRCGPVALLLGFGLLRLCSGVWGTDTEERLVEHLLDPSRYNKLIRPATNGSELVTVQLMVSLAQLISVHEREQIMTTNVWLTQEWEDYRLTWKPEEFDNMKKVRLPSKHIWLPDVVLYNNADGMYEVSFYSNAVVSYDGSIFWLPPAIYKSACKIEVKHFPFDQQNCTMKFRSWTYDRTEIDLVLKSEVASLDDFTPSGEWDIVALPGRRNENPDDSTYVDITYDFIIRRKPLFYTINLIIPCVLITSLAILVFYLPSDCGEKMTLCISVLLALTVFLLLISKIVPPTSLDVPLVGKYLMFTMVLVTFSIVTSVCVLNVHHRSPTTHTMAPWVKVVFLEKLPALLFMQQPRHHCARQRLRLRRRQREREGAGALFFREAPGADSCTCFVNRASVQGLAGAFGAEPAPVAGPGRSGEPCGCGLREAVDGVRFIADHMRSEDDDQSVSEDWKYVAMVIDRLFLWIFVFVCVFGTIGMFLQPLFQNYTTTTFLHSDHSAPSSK
# T3 sequence (P43681 whole entry): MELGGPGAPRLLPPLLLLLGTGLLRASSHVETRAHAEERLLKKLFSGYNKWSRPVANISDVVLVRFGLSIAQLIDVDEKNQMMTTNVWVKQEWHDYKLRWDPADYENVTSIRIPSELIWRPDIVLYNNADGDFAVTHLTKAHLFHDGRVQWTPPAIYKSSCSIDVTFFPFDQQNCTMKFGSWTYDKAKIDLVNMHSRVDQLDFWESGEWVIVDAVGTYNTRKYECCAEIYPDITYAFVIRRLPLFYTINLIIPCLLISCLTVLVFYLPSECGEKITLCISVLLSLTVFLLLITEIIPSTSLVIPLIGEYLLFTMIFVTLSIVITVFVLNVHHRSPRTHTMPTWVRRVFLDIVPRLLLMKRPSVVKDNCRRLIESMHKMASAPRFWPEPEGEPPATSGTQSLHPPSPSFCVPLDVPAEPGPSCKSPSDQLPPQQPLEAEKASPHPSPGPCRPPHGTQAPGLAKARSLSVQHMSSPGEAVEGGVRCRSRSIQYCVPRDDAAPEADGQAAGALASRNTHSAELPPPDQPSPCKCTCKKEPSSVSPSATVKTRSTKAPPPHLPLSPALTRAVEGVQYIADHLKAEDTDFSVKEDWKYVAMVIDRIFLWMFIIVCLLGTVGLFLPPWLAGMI
# T4 sequence (P09483 whole entry): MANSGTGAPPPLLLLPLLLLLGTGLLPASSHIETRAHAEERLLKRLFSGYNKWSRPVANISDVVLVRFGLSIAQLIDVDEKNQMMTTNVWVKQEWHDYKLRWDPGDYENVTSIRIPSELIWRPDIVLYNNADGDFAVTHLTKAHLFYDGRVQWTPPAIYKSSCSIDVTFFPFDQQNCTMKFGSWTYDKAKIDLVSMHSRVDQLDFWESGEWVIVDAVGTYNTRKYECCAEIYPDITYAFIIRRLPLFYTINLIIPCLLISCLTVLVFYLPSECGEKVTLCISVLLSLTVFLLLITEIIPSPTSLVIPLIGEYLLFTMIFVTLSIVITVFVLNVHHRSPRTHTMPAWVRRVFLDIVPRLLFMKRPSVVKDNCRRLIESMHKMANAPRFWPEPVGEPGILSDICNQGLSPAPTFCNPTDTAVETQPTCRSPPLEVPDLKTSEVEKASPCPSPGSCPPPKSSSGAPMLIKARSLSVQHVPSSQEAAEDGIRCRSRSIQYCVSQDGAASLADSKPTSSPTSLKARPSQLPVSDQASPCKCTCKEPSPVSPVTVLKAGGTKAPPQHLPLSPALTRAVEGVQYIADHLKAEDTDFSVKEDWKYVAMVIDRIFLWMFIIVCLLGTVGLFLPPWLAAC
# T4 sequence (P12390 whole entry): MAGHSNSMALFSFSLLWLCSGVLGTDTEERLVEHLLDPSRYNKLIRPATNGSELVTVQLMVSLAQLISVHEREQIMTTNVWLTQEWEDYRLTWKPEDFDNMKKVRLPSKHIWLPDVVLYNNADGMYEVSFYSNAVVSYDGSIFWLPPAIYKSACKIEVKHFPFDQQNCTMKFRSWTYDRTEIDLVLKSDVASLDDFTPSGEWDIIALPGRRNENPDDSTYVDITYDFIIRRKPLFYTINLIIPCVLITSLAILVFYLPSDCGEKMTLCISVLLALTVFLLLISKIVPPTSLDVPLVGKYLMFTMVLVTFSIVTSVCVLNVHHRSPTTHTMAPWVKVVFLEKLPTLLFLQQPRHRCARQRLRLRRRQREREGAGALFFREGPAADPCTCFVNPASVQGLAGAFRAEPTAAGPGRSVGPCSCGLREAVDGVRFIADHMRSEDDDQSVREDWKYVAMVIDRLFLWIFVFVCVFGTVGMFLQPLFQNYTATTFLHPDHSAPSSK
compound,measurement,setting,value
CN1CCC[C@H]1c1cccnc1 [NICOTINE],EC50,Acetylcholine receptor [1],60 µM
same,EC50,Rattus norvegicus [2],0.04 µM
same,Ki,Acetylcholine receptor [3],> 10 µM
C[N+]1(C)CCN(c2ccccc2)CC1 [DIMETHYLPHENYLPIPERAZINIUM],EC50,Rattus norvegicus [2],4.3 µM
same,EC50,[4],95 µM
same,EC50,[5],2.5 µM
COc1ccc(/C=C2\CCCN=C2c2cccnc2)c(OC)c1 [GTS-21],EC50,[6],Low efficacy
same,EC50,[7],Low efficacy
same,EC50,Rattus norvegicus [2],10 µM
same,EC50,[8],Low efficacy
same,EC50,[9],Low efficacy
CO[C@@H]1CC=C2CCN3CCC4=C(CC(=O)OC4)[C@@]23C1,Ki,[10],0.148 µM
same,EC50,[11],8.9 µM
same,Ki,[12],0.04 nM
same,EC50,Rattus norvegicus [2],0.03 µM
same,EC50,[4],19.6 µM
same,EC50,[13],0.7 µM
same,EC50,[14],0.37 µM
CNCC/C=C/c1cccnc1 [RIVANICLINE],EC50,Rattus norvegicus [2],0.94 µM
same,EC50,[5],4.3 µM
same,EC50,[9]; read-out: EC50,46 µM
same,Ki,[15],36 µM
CN1CCC[C@H]1COc1cccnc1,Potency,[16],55%
same,Potency,[17],90%
O=c1cccc2n1C[C@@H]1CNC[C@H]2C1 [CYTISINICLINE],EC50,[18],10 µM
same,EC50,Rattus norvegicus [2],0.06 µM
same,EC50,[4],71 µM
same,EC50,[5],38 µM
same,EC50,[9]; read-out: EC50,26 µM
Cc1cc([C@@H]2CCCN2C)on1 [ABT-418],Ki,Acetylcholine receptor [19],> 10 µM
same,Ki,[10],> 10 µM
same,EC50,[11],264 µM
same,Ki,[12],7.89 nM
same,EC50,Rattus norvegicus [2],0.38 µM
same,EC50,[4],264 µM
same,EC50,[13],10 µM
same,EC50,Acetylcholine receptor [20],411 µM
same,EC50,[9]; read-out: EC50,64 µM
same,EC50,[14],6 µM
Cc1ncccc1OC[C@@H]1CCCN1 [POZANICLINE],EC50,[7],Low efficacy
same,EC50,Rattus norvegicus [2],1.1 µM
same,EC50,[8],Low efficacy
same,EC50,[9],Low efficacy
same,Ki,[21],> 10 µM
Clc1ccc(C2CC3CCC2N3)cn1 (racemic) [EPIBATIDINE],EC50,Rattus norvegicus [2],0.037 µM
same,EC50,[4],3.5 µM
C[N+](C)(C)CCOC(=O)CCC(=O)OCC[N+](C)(C)C [SUXAMETHONIUM],EC50,TE-671,30 µM
CNC1(C)C2CCC(C2)C1(C)C (centres undefined) [MECAMYLAMINE],IC50,[22],1.8 µM
same,EC50,[23],30 µM
c1cncc(OC[C@@H]2CCN2)c1,EC50,Rattus norvegicus [24],0.003 µM
same,EC50,[4],8.9 µM
same,EC50,[5],0.7 µM
same,EC50,[9]; read-out: EC50,0.7 µM
CC(=O)C1=CC[N+](C)(C)CC1,EC50,[25],100 µM
